Measured values reported in patent publication US4450115A, “Amino-alcohol derivatives” (Kyowa Hakko Kogyo Co., Ltd., priority 1979, dated 1984).
Where a name gives a salt, the structure may show the parent alone. Read-outs that look alike come from different tables or passages of the source.

How the values were obtained:
[1] = test system: main artery of the dogs' organ; experiment: Effect on organ blood flow; format: in vivo, mongrel dogs; conditions: Canis lupus familiaris, iv, Table 5, femoral vein;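 further: percent change relative to blood flow before compound administration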
Experimental: (§1) In experiments (a), (b), (c) and (d), 3-4 male or female mongrel dogs (weight: 10-20 Kg) as one group were anesthetized by intravenous administration of 30 mg/kg of pentobarbital-Na. All compounds were dissolved in polyethylene glycol 400 and administered to the femoral vein.
(b) Effect on organ blood flow M (%)
In this test, 1 mg/kg of each compound shown in Tables 5 and 7 is administered to the dogs and an electromagnetic probe is attached to the main artery of the dogs' organ to measure the flow of blood.

in vivo = conditions: mouse, male dd-strain mice
Excerpt: The test compounds were orally administered to male dd-strain mice weighing 20-25 g.

α-adrenergic receptor = experiment: α blocking activity (inhibition of Norepinephrine-induced increase in systolic blood pressure); format: in vivo, mongrel dogs; conditions: Table 6, dogs, 3 μg/kg Norepinephrine i.v.
Experimental: as §1
(c-1) α blocking activity
In this test, 3 μg/kg of Norepinephrine is intravenously administered to the dogs to cause an increase in systolic blood pressure.

β1-adrenergic receptor = experiment: β1 blocking activity (inhibition of Isoproterenol-induced increase in heart rate); format: in vivo, mongrel dogs; conditions: Table 6, dogs, 0.5 μg/kg Isoproterenol i.v.
Experimental: as §1
(c-2) β1 blocking activity
In this test, 0.5 μg/kg of Isoproterenol is intravenously administered to the dogs to cause an increase in the heart rate.

β2-adrenergic receptor = experiment: β2 blocking activity (inhibition of Isoproterenol-induced decrease in diastolic blood pressure); format: in vivo, mongrel dogs; conditions: Table 6, dogs, 0.5 μg/kg Isoproterenol i.v.
Experimental: as §1
(c-3) β2 blocking activity
In this test, 0.5 μg/kg of Isoproterenol is intravenously administered to the dogs to cause a decrease in diastolic blood pressure.

[2] = read-out: Organ blood flow, Crotch (percentage change)
[3] = read-out: Organ blood flow, Malleus (percentage change)

SMILES | change in vivo at 1 mg/kg [1, 2] [%] | change in vivo at 1 mg/kg [1, 3] [%] | LD50 (in vivo; Table 5, oral) [mg/kg] | LD50 (in vivo; Table 6, oral) [mg/kg] | α blocking activity, percentage inhibition (α-adrenergic receptor; test compound 0.1 mg/kg) | β1 blocking activity, percentage inhibition (β1-adrenergic receptor; test compound 0.1 mg/kg) | β2 blocking activity, percentage inhibition (β2-adrenergic receptor; test compound 0.1 mg/kg) | further results
Cc1cccc(OCC(O)CNCC2COc3ccccc3O2)c1 (stereo not shown) [Compound 1, 1-(3-methylphenoxy)-3-(1,4-benzodioxane-2-methaneamino)-2-propanol] | 35 | 67 | 1000 to 2000 | – | – | – | – | –
CC(=O)Nc1ccc(OCC(O)CNCC2COc3ccccc3O2)cc1 (stereo not shown) [Compound 2, 1-(4-acetamidophenoxy)-3-(1,4-benzodioxane-2-methaneamino)-2-propanol] | 20 | 50 | 500 to 1000 | – | – | – | – | –
N#Cc1ccccc1OCC(O)CNCC1COc2ccccc2O1 (stereo not shown) [Compound 3, 1-(2-cyanophenoxy)-3-(1,4-benzodioxane-2-methaneamino)-2-propanol] | -21 | 18 | 420 | – | – | – | – | –
CCOC(=O)Cc1ccc(OCC(O)CNCC2COc3ccccc3O2)cc1 (stereo not shown) [Compound 5, 1-(4-ethoxycarbonylmethyl)phenoxy-3-(1,4-benzodioxane-2-methaneamino)-2-propanol] | -26 | -84 | > 1000 | – | – | – | – | –
Cc1cccc(OCC(O)CNCC2COc3ccccc3O2)c1C (stereo not shown) [Compound 6, 1-(2,3-dimethylphenoxy)-3-(1,4-benzodioxane-2-methaneamino)-2-propanol] | 17 | -9 | > 1000 | – | – | – | – | –
OC(CNCC1COc2ccccc2O1)COc1cccc2ccccc12 (stereo not shown) [Compound 7, 1-(1-naphthyloxy)-3-(1,4-benzodioxane-2-methaneamino)-2-propanol] | -36 | 59 | > 1000 | – | – | – | – | –
COc1ccc(C(O)C(C)NCC2COc3ccccc3O2)cc1C (stereo not shown) [Compound 8, 1-(3-methyl-4-methoxy)phenyl-2-(1,4-benzodioxane-2-methaneamino)propanol] | -67 | -4 | 450 | – | – | – | – | –
Cc1c(C(O)CNCC2COc3ccccc3O2)oc2ccc(F)cc12 (stereo not shown) [Compound 9, 1-(5-fluoro-3-methyl-2-benzofuranyl)-2-(1,4-benzodioxane-2-methaneamino)ethanol] | 42 | 35 | – | – | – | – | – | –
COC(=O)c1cc(C(O)CNCC2COc3ccccc3O2)ccc1O (stereo not shown) [Compound 10, 1-(3-methoxycarbonyl-4-hydroxy)phenyl-2-(1,4-benzodioxane-2-methaneamino)ethanol] | -50 | -16 | – | – | – | – | – | –
CC(CCc1ccccc1)NCC(O)COc1ccc(CC(N)=O)cc1 (stereo not shown) [Compound 11, 1-(4-carbamoylmethylphenoxy)-3-(1-methyl-3-phenylpropylamino)-2-propanol] | – | – | – | > 1000 | – | – | – | α blocking activity, percentage inhibition (α-adrenergic receptor; *dose of compound 1 mg/kg): -78%; β1 blocking activity, percentage inhibition (β1-adrenergic receptor; *dose of compound 1 mg/kg): -86%; β2 blocking activity, percentage inhibition (β2-adrenergic receptor; *dose of compound 1 mg/kg): -22%
CC(CCc1ccccc1)NCC(O)COc1ccccc1C#N (stereo not shown) [Compound 12, 1-(2-cyanophenoxy)-3-(1-methyl-3-phenylpropylamino)-2-propanol] | – | – | – | 125 to 250 | – | – | – | α blocking activity, percentage inhibition (α-adrenergic receptor; *dose of compound 1 mg/kg): -52%; β1 blocking activity, percentage inhibition (β1-adrenergic receptor; *dose of compound 1 mg/kg): -100%; β2 blocking activity, percentage inhibition (β2-adrenergic receptor; *dose of compound 1 mg/kg): -100%
Cc1cccc(OCC(O)CNC(C)CCc2ccccc2)c1C (stereo not shown) [Compound 13, 1-(2,3-dimethylphenoxy)-3-(1-methyl-3-phenylpropylamino)-2-propanol] | – | – | – | 500 to 1000 | -20% | -73% | -34% | –
CCOC(=O)Cc1ccc(OCC(O)CNC(C)CCc2ccccc2)cc1 (stereo not shown) [Compound 14, 1-(4-ethoxycarbonylmethylphenoxy)-3-(1-methyl-3-phenylpropylamino)-2-propanol] | – | – | – | > 1000 | +13% | -11% | +2% | –
COC(=O)c1ccccc1OCC(O)CNC(C)CCc1ccccc1 (stereo not shown) [Compound 15, 1-(2-methoxycarbonylphenoxy)-3-(1-methyl-3-phenylpropylamino)-2-propanol] | – | – | – | 500 to 1000 | -2% | -30% | -40% | –
CC(CCc1ccccc1)NCC(O)COc1ccccc1C(N)=O (stereo not shown) [Compound 16, 1-(2-carbamoylphenoxy)-3-(1-methyl-3-phenylpropylamino)-2-propanol] | – | – | – | 250 to 500 | -28% | -57% | -19% | –
CC(CCc1ccccc1)NCC(O)COc1ccc(CC(=O)O)cc1 (stereo not shown) [Compound 17, 1-(4-carboxymethylphenoxy)-3-(1-methyl-3-phenylpropylamino)-2-propanol] | – | – | – | > 1000 | +15% | +13% | -13% | –
CC(CCc1ccccc1)NCC(O)COc1ccc(CC(=O)NN)cc1 (stereo not shown) [Compound 18, 1-(4-hydrazinocarbonylmethylphenoxy)-3-(1-methyl-3-phenylpropylamino)-2-propanol] | – | – | – | > 1000 | +10% | -3% | +2% | –
CCOC(=O)Cc1cccc(OCC(O)CNC(C)CCc2ccccc2)c1 (stereo not shown) [Compound 19, 1-(3-ethoxycarbonylmethylphenoxy)-3-(1-methyl-3-phenylpropylamino)-2-propanol] | – | – | – | > 1000 | +23% | -7% | +14% | –
CC(CCc1ccccc1)NCC(O)COc1cccc(CC(N)=O)c1 (stereo not shown) [Compound 20, 1-(3-carbamoylmethylphenoxy)-3-(1-methyl-3-phenylpropylamino)-2-propanol] | – | – | – | > 1000 | +7% | -9% | +9% | –
CCOC(=O)Cc1ccc(C(O)CNC(C)CCc2ccccc2)cc1 (stereo not shown) [Compound 21, 1-(4-ethoxycarbonylmethylphenyl)-2-(1-methyl-3-phenylpropylamino) ethanol] | – | – | – | > 1000 | +9% | -10% | -8% | –
CC(CCc1ccccc1)NCC(O)c1ccc(CC(N)=O)cc1 (stereo not shown) [Compound 22, 1-(4-carbamoylmethylphenyl)-2-(1-methyl-3-phenylpropylamino) ethanol] | – | – | – | > 1000 | +19% | -8% | -11% | –
CC(=O)Nc1ccc(OCC(O)CNCc2ccc3c(c2)OCCO3)cc1 (stereo not shown) [Compound 23, 1-(4-acetamidophenoxy)-3-(1,4-benzodioxane-6-methaneamino)-2-propanol] | 90 | 67 | > 1000 | – | – | – | – | –
O=C1CCCc2c(OCC(O)CNCc3ccc4c(c3)OCCO4)cccc21 (stereo not shown) [Compound 24, 1-{3,4-dihydro-1(2H)-naphthalenon-5-yl}oxy-3-(1,4-benzodioxane-6-methaneamino)-2-propanol] | 106 | 60 | > 1000 | – | – | – | – | –
NC(=O)Cc1ccc(OCC(O)CNCc2ccc3c(c2)OCCO3)cc1 (stereo not shown) [Compound 25, 1-(4-carbamoylmethylphenoxy)-3-(1,4-benzodioxane-6-methaneamino)-2-propano] | 90 | 22 | > 1000 | – | – | – | – | –
COc1ccc(OCC(C)NCC(O)COc2ccccc2C#N)cc1 (stereo not shown) [Compound 31] | – | – | – | 125 to 250 | -20% | -54% | -30% | –
CCOC(=O)Cc1ccc(OCC(O)CNC(C)COc2ccc(OC)cc2)cc1 (stereo not shown) [Compound 32, 1-(4-ethoxycarbonylmethylphenoxy)-3-{1-methyl-2-(4-methoxyphenoxy)ethylamino}-2-propanol] | – | – | – | > 1000 | 0% | -11% | -2% | –
COc1ccc(OCC(C)NCC(O)COc2ccc(NC(C)=O)cc2)cc1 (stereo not shown) [Compound 33, 1-(4-acetamidophenoxy)-3-{1-methyl-2-(4-methoxyphenoxy)ethylamino}-2-propanol] | – | – | – | > 1000 | -21% | -52% | -13% | –
CC(CCc1ccccc1)NCC(O)c1ccc(O)c(C(N)=O)c1 (stereo not shown) [Reference compound, 5-[1-hydroxy-2-(1-methyl-3-phenylpropyl)aminoethyl] salicylamide hydrochloride, reference compound] | – | – | – | – | -32% | -69% | -50% | –
